Assay results: patent publication US20240262844A1, “PYRIDINIUM SALTS AND METHODS OF USE” (UNIVERSITY OF WYOMING, priority 2023, published 2024)
Structures can show the parent of a compound that is named as a salt.

Target: T1, PARP1 (Homo sapiens, UniProt P09874)
T1 construct: endogenous in cells; host or cells: HEK293T
Test: In-situ labeling and enrichment of PARP1 in HEK293T cells (MS-MS, Western)
Format: cell-based
Description: Cell culture and in-situ tryptophan probe treatment: Cell lines were cultured at 37° C. with 5% C02. Human embryonic kidney 293 cells expressing a mutant version of the SV40 large T antigen (HEKT293T cells) were grown in Dulbecco's Modified Eagle Medium (DMEM, Gibco) supplemented with 10% fetal bovine serum and 1% penicillin/streptomycin. For in-situ labeling, cells were grown to 90% confluence, washed with Dulbecco's phosphate buffered saline (DPBS), treated with 100x stocks of the tryptophan probes (the pyridinium salts) in OptiMem (GibCo) to generate final concentrations (0 μM, 1 μM, 10 μM, and 100 μM) in 1% dimethylsulfoxide (DMSO). Cells were incubated for 1 hour at 37° C. with 5% C02 followed by photo-activation at the respective wavelengths for 20 minutes at 4° C. Cells were harvested with a cell scraper, washed 3× with DPBS, and pellets were stored at −80° C. until further use. […]
In-situ tryptophan probe sample processing for peptide-level characterization: Cell pellets were lysed via sonication (QSonica) at 50% amplitude, 2 seconds ON, 3 seconds OFF, 30 seconds in 40 mM HEPES pH 7.5 (4-(2-hydroxyethyl)-1-piperazineethanesulfonic acid), 1.5 mM magnesium chloride (MgCl2), 1% Sodium dodecyl sulfate (SDS), 0.8% NP-40 (also known as nonyl phenoxypolyethoxylethanol), and 1x protease inhibitors (Thermo). Protein concentration was determined by BCA (Pierce). […]

T1 sequence (P09874 whole entry): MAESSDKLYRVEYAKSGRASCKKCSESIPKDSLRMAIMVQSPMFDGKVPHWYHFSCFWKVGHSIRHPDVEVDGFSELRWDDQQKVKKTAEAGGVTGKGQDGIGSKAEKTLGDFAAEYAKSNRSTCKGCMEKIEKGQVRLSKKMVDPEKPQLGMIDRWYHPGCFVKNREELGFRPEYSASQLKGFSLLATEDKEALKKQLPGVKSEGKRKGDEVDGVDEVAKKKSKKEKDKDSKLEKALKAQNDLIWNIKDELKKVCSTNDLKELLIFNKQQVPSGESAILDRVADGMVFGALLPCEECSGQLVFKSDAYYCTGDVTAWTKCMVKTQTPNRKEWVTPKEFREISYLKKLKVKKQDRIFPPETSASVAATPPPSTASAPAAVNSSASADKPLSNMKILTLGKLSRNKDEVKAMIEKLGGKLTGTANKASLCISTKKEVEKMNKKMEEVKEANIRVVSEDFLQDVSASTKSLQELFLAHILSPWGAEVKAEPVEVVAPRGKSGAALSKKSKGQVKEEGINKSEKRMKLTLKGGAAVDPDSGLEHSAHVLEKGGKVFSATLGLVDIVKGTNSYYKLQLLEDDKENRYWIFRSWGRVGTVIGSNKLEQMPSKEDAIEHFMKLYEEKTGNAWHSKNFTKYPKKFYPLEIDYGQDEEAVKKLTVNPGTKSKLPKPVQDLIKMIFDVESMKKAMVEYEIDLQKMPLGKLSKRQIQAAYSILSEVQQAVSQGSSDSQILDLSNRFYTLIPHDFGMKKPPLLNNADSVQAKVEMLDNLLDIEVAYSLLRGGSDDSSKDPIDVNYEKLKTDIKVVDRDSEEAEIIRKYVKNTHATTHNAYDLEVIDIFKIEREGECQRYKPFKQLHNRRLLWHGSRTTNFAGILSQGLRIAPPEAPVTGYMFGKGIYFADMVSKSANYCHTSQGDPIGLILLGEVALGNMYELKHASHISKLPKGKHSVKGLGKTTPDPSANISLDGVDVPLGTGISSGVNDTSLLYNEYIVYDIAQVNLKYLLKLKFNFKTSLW

## COc1ccc2cc(-c3cc(C)[n+](N(C)C(=O)OCCCCCCN=[N+]=[N-])c(C)c3)ccc2c1 [Pyridinium salt 2d, 1-((((6-azidohexyl)oxy)carbonyl)(methyl)amino)-4-(6-methoxynaphthalen-2-yl)-2,6-dimethylpyridin-1-ium tetrafluoroborate]
Chemoproteomic profiling, HEK293T cells
  modified and dose-dependently enriched tryptophan residues: Trp79 and Trp318
Cultures irradiated with blue light in the presence of probe, protein-level enrichment
  PARP1 in enriched protein mixture (Western analysis): found to contain both proteins
